From patent publication US8524909B2, “Tetrahydro-pyran derivatives” (Hoffmann-La Roche Inc., priority 2010, dated 2013)
pIC50: −log10 of the molar value.

Target: mGlyT-1b (Mus musculus (Mouse), UniProt P28571)
Assay: Glycine Uptake Inhibition Assay (mGlyT-1b)
Assay type: cell-based
Conditions: [3H]-glycine uptake in Flp-in-CHO cells stably transfected with mGlyT1b cDNA; 20 min preincubation at 22° C.
Experimental: DMEM complete medium: Nutrient mixture F-12 (Gibco Life-technologies), fetal bovine serum (FBS) 5%, (Gibco life technologies), Penicillin/Streptomycin 1% (Gibco life technologies), Hygromycin 0.6 mg/ml (Gibco life technologies), Glutamine 1 mM Gibco life technologies)
Uptake buffer (UB): 150 mM NaCl, 10 mM Hepes-Tris, pH 7.4, 1 mM CaCl2, 2.5 mM KCl, 2.5 mM MgSO4, 10 mM (+) D-glucose.
Flp-in™-CHO (Invitrogen Cat no R758-07) cells stably transfected with mGlyT1b cDNA.
Glycine Uptake Inhibition Assay (mGlyT-1b)
On day 1 mammalian cells, (Flp-in™-CHO), transfected with mGlyT-1b cDNA, were plated at the density of 40,000 cells/well in complete F-12 medium, without hygromycin in 96-well culture plates. On day 2, the medium was aspirated and the cells were washed twice with uptake buffer (UB). The cells were then incubated for 20 min at 22° C. with either (i) no potential competitor, (ii) 10 mM non-radioactive glycine, (iii) a concentration of a potential inhibitor. A range of concentrations of the potential inhibitor was used to generate data for calculating the concentration of inhibitor resulting in 50% of the effect (e.g. IC50, the concentration of the competitor inhibiting glycine uptake of 50%). A solution was then immediately added containing [^3H]-glycine 60 nM (11-16 Ci/mmol) and 25 μM non-radioactive glycine. The plates were incubated with gentle shaking and the reaction was stopped by aspiration of the mixture and washing (three times) with ice-cold UB. The cells were lysed with scintillation liquid, shaken 3 hours and the radioactivity in the cells was counted using a scintillation counter.

Chain of mGlyT-1b (P28571 other isoform, or with tags, fused parts or gaps isoform P28571-2): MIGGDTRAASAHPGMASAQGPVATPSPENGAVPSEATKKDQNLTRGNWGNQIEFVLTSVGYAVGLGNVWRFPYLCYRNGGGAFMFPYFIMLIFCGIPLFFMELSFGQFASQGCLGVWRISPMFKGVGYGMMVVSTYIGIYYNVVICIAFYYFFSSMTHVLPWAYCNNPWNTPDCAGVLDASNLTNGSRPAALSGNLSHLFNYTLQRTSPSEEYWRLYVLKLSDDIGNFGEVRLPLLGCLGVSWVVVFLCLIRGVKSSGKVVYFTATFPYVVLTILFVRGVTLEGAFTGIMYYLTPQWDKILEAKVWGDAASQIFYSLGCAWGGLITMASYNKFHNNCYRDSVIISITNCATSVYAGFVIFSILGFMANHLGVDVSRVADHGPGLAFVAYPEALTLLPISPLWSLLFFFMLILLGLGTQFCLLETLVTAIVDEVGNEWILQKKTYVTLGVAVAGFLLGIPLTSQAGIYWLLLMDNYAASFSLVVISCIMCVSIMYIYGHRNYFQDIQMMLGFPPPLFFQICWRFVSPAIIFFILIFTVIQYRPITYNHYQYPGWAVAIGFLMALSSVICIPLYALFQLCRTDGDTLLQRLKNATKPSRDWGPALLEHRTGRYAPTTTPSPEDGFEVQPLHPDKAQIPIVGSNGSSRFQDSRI

Row | SMILES | pIC50
1 | COc1cc(C(F)(F)F)cc(SC)c1C(=O)N[C@@H]1COCC[C@H]1NC1CCC(O)CC1 (mixture of isomers) [Example 33, N-[(3SR,4RS)-4-(4-Hydroxy-cyclohexylamino)-tetrahydro-pyran-3-yl]-2-methoxy-6-methylsulfanyl-4-trifluoromethyl-benzamide] | 6.12
2 | O=C(N[C@@H]1COCC[C@H]1N1CCC(O)CC1)c1ccc(C(F)(F)F)cc1C1CC1 (racemic) [Example 36] | 6.56
3 | COc1cc(C(F)(F)F)cc(SC)c1C(=O)N[C@@H]1CCOC[C@@H]1N1CCCC1 (relative stereo) [Example 63, cis-2-Methoxy-6-methylsulfanyl-N-(3-pyrrolidin-1-yl-tetrahydro-pyran-4-yl)-4-trifluoromethyl-benzamide] | 6.72
4 | COc1cc(C(F)(F)F)cc(SC)c1C(=O)N[C@H]1COCC[C@@H]1N1CCCC1 (single isomer, unassigned) [Example 5, (+)-2-Methoxy-6-methylsulfanyl-N-(4-pyrrolidin-1-yl-tetrahydro-pyran-3-yl)-4-trifluoromethyl-benzamide] | 6.93
5 | COc1cc(C(F)(F)F)cc(SC)c1C(=O)N[C@H]1COCC[C@@H]1N1CCCC1 (single isomer, unassigned) [Example 6, (−)-2-Methoxy-6-methylsulfanyl-N-(4-pyrrolidin-1-yl-tetrahydro-pyran-3-yl)-4-trifluoromethyl-benzamide] | 7.55
6 | O=C(N[C@H]1COCC[C@@H]1NC1CCCC1)c1ccc(C(F)(F)F)cc1C1CC1 (stereo in doubt) [Example 43, (+)-N-(trans-4-Cyclopentylamino-tetrahydro-pyran-3-yl)-2-cyclopropyl-4-trifluoromethyl-benzamide] | 7.10
7 | COc1cc(C(F)(F)F)cc(SC)c1C(=O)N[C@@H]1COCC[C@H]1N1C[C@H]2C[C@H]2C1 [Example 34, N-[(3S,4R)-4-(3-Aza-bicyclo[3.1.0]hex-3-yl)-tetra-hydro-pyran-3-yl]-2-methoxy-6-methylsulfanyl-4-trifluoromethyl-benzamide] | 6.96
8 | O=C(N[C@@H]1COCC[C@H]1N1C[C@H]2C[C@H]2C1)c1ccc(C(F)(F)F)cc1C1CC1 [Example 35, N-[(3S,4R)-4-(3-Aza-bicyclo[3.1.0]hex-3-yl)-tetra-hydro-pyran-3-yl]-2-cyclopropyl-4-trifluoromethyl-benzamide] | 7.58
9 | O=C(N[C@@H]1COCC[C@H]1N1CCCC1)c1ccc(C(F)(F)F)cc1C1CC1 [Example 37, (+)-2-Cyclopropyl-N-(4-pyrrolidin-1-yl-tetrahydro-pyran-3-yl)-4-trifluoromethyl-benzamide] | 7.08
10 | O=C(N[C@H]1COCC[C@@H]1N1CCCC1)c1ccc(C(F)(F)F)cc1C1CC1 [Example 38, (−)-2-Cyclopropyl-N-(4-pyrrolidin-1-yl-tetrahydro-pyran-3-yl)-4-trifluoromethyl-benzamide] | 7.08
11 | Cc1cc(C(F)(F)F)cc(C(F)(F)F)c1C(=O)N[C@H]1COCC[C@@H]1N1CCCC1 [Example 39, (+)-2-Methyl-N-trans-(4-pyrrolidin-1-yl-tetrahydro-pyran-3-yl)-4,6-bis-trifluoro-methyl-benzamide] | 7.36
12 | Cc1cc(C(F)(F)F)cc(C(F)(F)F)c1C(=O)N[C@@H]1COCC[C@H]1N1CCCC1 [Example 40, (−)-2-Methyl-N-trans-(4-pyrrolidin-1-yl-tetrahydro-pyran-3-yl)-4,6-bis-trifluoromethyl-benzamide] | 7.02
13 | CSc1cc(C(F)(F)F)cc(C(F)(F)F)c1C(=O)N[C@H]1COCC[C@@H]1N1CCCC1 [Example 41, (+)-2-Methylsulfanyl-N-trans-(4-pyrrolidin-1-yl-tetrahydro-pyran-3-yl)-4,6-bis-trifluoromethyl-benzamide] | 7.35
14 | CSc1cc(C(F)(F)F)cc(C(F)(F)F)c1C(=O)N[C@@H]1COCC[C@H]1N1CCCC1 [Example 42, (−)-2-Methylsulfanyl-N-trans-(4-pyrrolidin-1-yl-tetrahydro-pyran-3-yl)-4,6-bis-trifluoromethyl-benzamide] | 7.57
